{"source": "patent US20060111778A1", "about": "“Methods of promoting healing of cartilage defects and method of causing stem cells to differentiate by the articular chondrocyte pathway” (priority 2004, published 2006)", "tested_on": "bone marrow-derived stem cells (MSCs)", "assay": "culture of bone marrow-derived stem cells (MSCs) with cartilage fragments, with or without TGF-β1", "type": "cell-based, horse", "description": "Bone marrow aspirates were obtained from the tuber coxae of 3 normal horses (3-years-old) to attain bone marrow-derived stem cells (MSCs). Aspirates were cultured in media, pre-plated for purification, and grown in monolayer culture flasks for 2-3 weeks until a confluent monolayer culture of MSCs was obtained. Confluent monolayers were expanded for another 2-3 weeks until a minimum of 26×10^6 cells were attained.\nCartilage was collected sterilely from the same horses and freeze-thawed 3 times to ensure all native cells within the cartilage were dead. Prior to the start of the experiment the cartilage was placed in liquid nitrogen and pulverized until it became a fine powder. Then the cartilage was weighed into aliquots to make 2.5% and 10% of cartilage weight to volume in media.\nA 24-well, non-adherent plate contained treatment groups of 1×10^6 cells only, 1×10^6 cells with 2.5% cartilage, 1×10^6 cells with 10% cartilage, 2.5% cartilage only, and 10% cartilage only to make 5 treatment groups. The cells-only treatment group was the baseline positive control. The 2.5% and 10% cartilage fragments without cells served as the negative controls and, if necessary, for baseline values of proteoglycan and DNA content of the matrix provided. […]", "data": [{"substance": "TGF-β1: transforming growth factor β type 1, growth factor supplemented to media at 5 ng/ml", "values": [{"measurement": "MSC survival and chondrogenesis", "value": "necessary"}, {"measurement": "DNA content by day 14", "setting": "day 14, 5 ng/ml TGF-β1", "value": "significantly increasing"}]}]}
